The values below come from a melting point compilation (Tetko et al.; mined from patent text by program, amines drawn as free bases though some values may be those of a salt).

Molecules are shown by their SMILES.

With `O=C(O)c1cccc(Nc2nc(Oc3ccccc3)nc(Oc3ccccc3Cl)n2)c1`, the melting point lay in the range of 250 to 252 °C.
Consider `COc1ccc([N+](=O)[O-])cc1C=CC1=NC(C)(C)CO1`, for which the melting point fell in the range of 115 to 116 °C.
The value for `Cc1ncccc1NC(=NC#N)NC(NC(=O)Cc1ccc(F)c(F)c1)C(C)(C)C` (stereo not given) was 58 to 60 °C.
As to `CCCCCCCCCCCCN=C=O`, the melting point fell in the range of 100 to 103 °C.
With `CC(C)(C)c1ccc(C(=O)Nc2cc[nH]c(=O)n2)cc1`, the melting point was above 260 °C.
The value for `CCNCC1(C)CN(c2c(F)cc3c(=O)c(C(=O)O)cn(C4CC4)c3c2F)C1` was 250 to 255 °C.
In the case of `O=C(c1c(F)cccc1F)N1CNCN(c2ccc(Oc3ccc(C(F)(F)F)cc3Cl)cc2F)C1=O`, the melting point is 135 to 137 °C.
The compound `CSc1cc2n(c(=O)n1)C(C)N=C2` (stereo not given) yielded a melting point of 221 to 222 °C.
As for `COc1cc(Nc2c(C#N)cnc3cc4cc(OC)c(OC)cc4cc23)c(C)cc1Cl`, the melting point was in the range of 171 to 173 °C.
Compound `CCCc1nccn1-c1nc(-c2ccc(Cl)cc2)c(CCCOc2ccccc2OC)o1` had a melting point of 89 to 90 °C.
The value for `COc1ccc2[nH]c(Br)c(CCNC(=O)C3CC3)c2c1` was 82 to 83 °C; that for `N#Cc1cc[nH]c1-c1ccc(Cl)cc1` was 165 to 166 °C; that for `CC1(N)CN(c2cc3c(cc2F)c(=O)c(C(=O)O)cn3-c2ccc(F)cc2)C1` was 270 to 276 °C.
Regarding `O=C(O)Cn1c(=O)n(CCCCN2CCC(OC(c3ccccc3)c3ccccc3)CC2)c(=O)c2ccccc21`, the melting point was 153 to 155 °C.
For `CC(C)(C)OC(=O)Nc1cc(N2CCC(OCCOC3CCCCO3)CC2)c(-c2ccc(F)cc2)cc1[N+](=O)[O-]` (racemic), the melting point was in the range of 144 to 146 °C.
Regarding `CCn1nc2c(N)nc3ccccc3c2c1CC1(O)CCN(S(C)(=O)=O)CC1`, the melting point lay within 268 to 270 °C.
`Nc1nnc(-c2ccc3ncn(-c4cc(C(F)(F)F)ccc4Cl)c3c2)o1` had a melting point of 288 to 289 °C.
In turn, `COC(=O)c1cc(NC2CCCCC2)c2cc(Cc3ccc(F)cc3)cnc2c1O` yielded a melting point of 75.5 to 77.5 °C.
In turn, `CC(=O)NCCCC(=O)OC1c2ccccc2C(=O)N1c1ccc2ccc(Cl)nc2n1` (single isomer, unassigned; (+)) gave a melting point of 200 °C.
The value for `NCc1ccc(-c2cnc(N3CCN(C4CC4)CC3)nc2)cc1` was 150 to 152 °C; that for `CONC(=N)NC(=O)Nc1c(C)cccc1C` was 78 to 80 °C.
`Fc1ccc(C2CCN(CCN(CCN3CCC(c4ccc(F)cc4)CC3)c3ccccc3)CC2)cc1` returned a melting point of 104 to 105 °C.
`CC(C)c1ccc(NN)c(Cl)c1` displayed a melting point of 64 to 66 °C.
The value for `CN(CCc1ccccc1)C1CCN(C(=O)c2ccc(-n3cncn3)nc2)CC1` was 85 to 86 °C; that for `N#Cc1cc(NC(=O)c2cc3ccccc3s2)ccc1N(CCO)CCO` was 163 to 168 °C; that for `CN1CCC(OC(c2cccc(C#CCN)c2)c2nc3ccccc3[nH]2)CC1` (stereo not given) was 101 °C.
Compound `CC12CCC3c4ccc(OCc5ccccc5)cc4CCC3C1CCC2OCc1ccccc1` (stereo not given) showed a melting point of 74 to 78 °C.
`Cc1ccsc1-c1nc(-c2c(F)cccc2Cl)nn1C` had a melting point of 80 to 82 °C.
For `COc1cc(OC)cc(S(=O)(=O)c2ccc([N+](=O)[O-])c(C)c2)c1`, the melting point fell in the range of 125 to 127 °C.
`CC(C)(C)[Si](C)(C)OC1C(=O)N(S(=O)(=O)c2ccc(N3CCCCCC3)cc2)CC1O` (stereo not given) displayed a melting point of 121 °C.
In turn, `CCCCc1cn(Cc2ccc(-c3ccccc3C(=O)O)cc2)c2c(c1=O)CCCC2` had a melting point of 260 °C.
`CC(=O)NC[C@H]1CN(c2ccc(N3CCC(n4nnc(-c5ccccc5)n4)CC3)c(F)c2)C(=O)O1` displayed a melting point of 212 to 214 °C.
`O=C(Nc1cccc(CO)c1)NC1N=C(c2ccccc2F)c2ccccc2N(CC(=O)N2CC3CCC(CC3)C2)C1=O` (racemic) gave a melting point of 143 to 161 °C.
As for `COC(=O)Cc1nc(-c2cc(C(C)(C)C)c(O)c(C(C)(C)C)c2)oc1C`, the melting point lay within 121 to 123 °C.
The compound `CC(C)=CCCC(C)=CCOc1ccc(C(=O)NCCc2ccncc2)cc1` came in with a melting point of 85.2 to 86.1 °C.
`O=C(O)c1cc2c(c(-c3ccccc3)c1)C(=O)OC2=S` had a melting point of 237 to 247 °C.
Compound `CN1CC(CN2CCC(C(O)(c3ccc(F)cc3)c3ccc(F)cc3)CC2)OC1=O` (stereo not given) returned a melting point of 147 to 148 °C.
In turn, `Cn1cc(C#N)c(=O)c2cc3cc(F)c(F)cc3nc21` registered a melting point of 380 °C.
`N#CC(C#N)=C1N(CCN2CCCCC2)c2ccccc2N1CCN1CCCCC1` yielded a melting point of 127 to 128 °C.
With `CC(=O)c1ccc(Nc2cccc(-c3ccccn3)c2)c(N)c1`, the melting point fell in the range of 145 to 146 °C.
The compound `OC1c2ccc(Cl)cc2OCc2cccnc21` (stereo not given) registered a melting point of 105 to 108 °C.
`COc1ccc(-c2c(SCc3ccncc3)oc3cc(OCc4ccccc4)ccc3c2=O)cc1`: the melting point amounted to 170 °C.
With `Nc1nc(O)c2c(n1)NCC(CCc1nc(C(=O)N[C@@H](CCC(=O)O)C(=O)O)c[nH]1)C2` (stereo not given in full), the melting point was above 260 °C.
Compound `COC(=O)CC/C(C)=C/Cc1c(NC(=O)N(C)C)c2c(c(C)c1OC)COC2=O` registered a melting point of 116 to 118 °C.
Regarding `CCOC(=O)/C=C/c1ccc(OCCOC)cc1OCc1nc(-c2ccccc2)oc1C`, the melting point is 109 to 110 °C.
As for `CC1COC(Nc2ccccc2)(c2ccnc(C(=O)c3ccc(Cl)cc3)c2)O1` (stereo not given), the melting point fell in the range of 125 to 126 °C.
For `O=C(O)C1Cc2ccccc2CN1C(=O)c1ccc(F)c(F)c1` (stereo not given), the melting point lay in the range of 89 to 91 °C.
`CC(=O)c1ccc(=O)[nH]c1C` had a melting point of 196 to 198 °C.
The same measure for `CCOCc1nnc2c(C(F)(F)F)c(CN[C@H]3CC[C@@H](c4ccccc4)CC3)ccn12`: 137 °C; for `COC(=O)c1ccc(Cc2c[nH]c3ccc(C#N)cc23)c(OC)c1`: 148 to 149 °C.
Take `Cc1nn(-c2ccc(F)cc2)cc1C(=O)N(CC(=O)O)c1ccc(N2CCC(O)CC2)c(C#N)c1`: the melting point lay in the range of 124 to 125 °C.
For `O=C(c1ccc(O)cc1)c1oc2ccccc2c1-c1ccc(Cl)cc1`, the melting point lay in the range of 220 to 221 °C.
Regarding `CCCNc1nc(N)cc(Cl)n1`, the melting point lay within 92 to 94 °C.
For the compound `CC(NC1=Nc2ccccc2C(=O)N(C)C1)c1ccccc1` (stereo not given), the melting point was in the range of 150 to 151 °C.
In the case of `O=C(CCl)Nc1csc(NC(=O)CCl)n1`, the melting point fell in the range of 188 to 192 °C.
The value for `CCCC1=C(C(=O)OCC)C(c2ccccc2OCc2ccccc2)c2c[nH]nc2N1` (stereo not given) was 128 °C; that for `Cc1nn(-c2c(Cl)cc(C(F)(F)F)cc2Cl)c(NCC(=O)O)c1SC(F)(F)F` was 168 to 170 °C.
With `O=C1NC(=O)C(Cc2ccc(OCC3CN(c4ccccn4)CCO3)cc2)S1` (stereo not given), the melting point was in the range of 139 to 142 °C.
`Cc1cnc(C2=NC(C)(C(C)C)C(=O)N2)c(C(O)(c2cccs2)c2cccs2)c1` (stereo not given) came in with a melting point of 190 to 191 °C.
In the case of `Cc1cc2c(C(C)(C)C)c(O)ccc2o1`, the melting point came to 49.9 °C.
With `O=C(c1ccccc1)N1CCc2[nH]c3cc(-c4ccccc4)ccc3c2CC1`, the melting point was 213 to 232 °C.
The same measure for `CN1CCC(=C2c3ccccc3CCn3ncnc32)CC1`: 127 °C; for `CCn1nc(C(F)(F)F)c(C)c1O`: 150 to 152 °C.
As for `O=C(Nc1cc2[nH]c(=O)c(=O)[nH]c2cc1[N+](=O)[O-])C(F)(F)F`, the melting point is above 320 °C.
With `CC(C)CN1N=C2C=NC(c3ccccc3)=CN2C1CC(=O)O` (stereo not given), the melting point amounted to 160 °C.
For `CS(=O)(=O)Nc1cc(NC(=O)CN)c([N+](=O)[O-])cc1Oc1ccccc1`, the melting point lay in the range of 208 to 210 °C.
As to `CN1C(=O)CC[C@]2(C)c3ccc(-c4ccc([N+](=O)[O-])s4)cc3CC[C@@H]12`, the melting point is 147 to 149 °C.
`COc1cccc(CNc2ncnc3c2sc2nc(N4CCCC4)c4c(c23)CC(C)(C)OC4)c1OC` came in with a melting point of 166 to 168 °C.
The same measure for `O=C1OCCC1n1nc(-c2c(-c3ccccc3)nn3ccccc23)ccc1=O` (stereo not given): 179 to 180 °C.
The compound `O=c1c2ccc(Cl)cc2n(Cc2ccccc2)n2c(Br)ccc12` showed a melting point of 148 to 149 °C.
As to `O=C(Oc1cc(F)ccc1F)c1cc2ccccc2oc1=O`, the melting point fell in the range of 134 to 137 °C.
In turn, `CCNC(=O)c1c([Si](C)(C)C)ccc(Cl)c1Cl` came in with a melting point of 96 to 98 °C.
As for `O=C(Nc1ccccc1S(=O)(=O)N1CCCCC1)N[C@@H](Cc1ccc(Oc2nccc3ccncc23)cc1)C(=O)O`, the melting point turned out to be 159 °C.
The value for `c1cncc(Nc2ncc(-c3ccncn3)c(-c3ccco3)n2)c1` was 174 °C.
`NS(=O)(=O)c1cc2cc(C=O)sc2o1` showed a melting point of 165 to 167 °C.
Consider `O=[N+]([O-])C=C1NCCN1Cc1ccc(OCC(F)(F)F)nc1`, for which the melting point is 132 to 135 °C.
`CC12CCC(=O)C=C1CCC1C2CCC2(C)C(c3cccnc3)=CCC12` (stereo not given) returned a melting point of 148 to 150 °C.
On to `O=C(O)CCc1cc(CCN2CCC(C(=O)c3ccc(F)cc3)CC2)cc2c1CCC(NS(=O)(=O)c1ccc(Cl)cc1)C2` (stereo not given), for which the melting point is 210 °C.
With `CCCCCNC(=O)[C@H](Cc1ccc(OCC(=O)O)c(-c2nn[nH]n2)c1)NC(=O)[C@H](Cc1ccccc1)NC(=O)OC(C)(C)C`, the melting point is 121 to 123 °C.
Turning to `O=C1CSc2ccc3ccccc3c2N1`, the melting point lay in the range of 195 to 196 °C.
The same measure for `COCOc1c(NC(=O)Nc2ccccc2)cc(OC)cc1C(C)(C)C`: 121 to 123 °C.
`CC(=O)Nc1nc(CCc2ccc(CO)cc2)cs1` yielded a melting point of 162 to 165 °C.
On to `CCOC(=O)c1cc(SCc2ccccc2)c(Cc2ccccc2)c(S(N)(=O)=O)c1`, for which the melting point was in the range of 108 to 110 °C.
Compound `COc1cn(C(c2ccccc2)c2ccccc2)c(=O)o1` yielded a melting point of 125 to 127 °C.
On to `O=C(Nc1ccc(CCN2C(=O)[C@H]3CCC[C@H]3N(C(=O)CN3C(=O)c4ccccc4C3=O)c3ccccc32)cc1)OCc1ccccc1` (relative stereo), for which the melting point is 152 to 154 °C.
